Data on eleven compounds can be found in patent US20110046056A1, “APOA-1 PEPTIDE MIMETICS” (priority 2007, published 2011).

Where two headings read alike, the source gives them in different places. *1 amine or outer side, *2 acyl side, *3 side chain or, on linkers, in order; H or OH if unused. Where a SMILES comes first, the peptide text is derived from it. Bridges are numbered along the chain shown (N, C = ends). [ ]: non-standard residue; d: D form. Leu(5,5,5,5',5',5'-F6) = N[C@@H](CC(C(F)(F)F)C(F)(F)F)C(=O)O; dNle(6-ylidene) = O=C([C@@H](CCCC=[*:3])N[*:1])[*:2]; Ala(5-hexenyl) = C=CCCCCC[C@H](N)C(=O)O; dNle(6-vinyl) = C=CCCCC[C@@H](N)C(=O)O; Gla = N[C@@H](CC(C(=O)O)C(=O)O)C(=O)O; Gly(octyl) = CCCCCCCC[C@H](N)C(=O)O; X6 = CCCCCCC[C@H](N[*:1])C(=O)[*:2]

In the experiment the target is T1, ABCA1 cholesterol transporter protein (Mus musculus, UniProt P41233).
T1 construct: endogenous in cells
The experiment in a line: ABCA1-dependent cholesterol efflux from RAW mouse macrophage cells (in vitro RCT assay). The experiment is classed as cell-based. The source says:
Peptides of the present invention were designed based on amphipathic properties and their abilities to solubilize phospholipids and promote cholesterol efflux. The most direct functional measurement of efficacy for the ApoA-1 peptide mimetic is its capacity to improve the efflux of cholesterol from the cell. The RAW and J774 cell lines are reliable mouse macrophage cell lines frequently used in the art for this purpose. […] The RAW cell line is preferred and recited in the description below.
In the present assay, the RAW cells are plated at 1.5×10^5 cells/200 μl/well/48-well plate in DMEM complete medium (with 10% FBS from INVITROGEN and 1% penicillin-streptomycin-glutamine from GIBCO) and ^3H-cholesterol at 5 μCi/ml. After 24 hours incubation in a moist 37° C. atmosphere with 5% CO2, the spent medium is removed, the cells are washed once with serum-free DMEM (0.1% fatty acid free bovine serum albumin replaces the FBS), and fresh serum-free medium (200 μl) is added to each well. After overnight incubation in the serum-free medium to allow the cellular cholesterol pools to equilibrate, the spent medium is removed, and fresh serum-free medium is added with/without CPT-cAMP (150 μM final). Eight-point serial titrations of the peptide/s being tested are added at this time (duplicate titrations in plain medium without cAMP and duplicate titrations in medium containing cAMP).
After 24 hours incubation in the various conditions, the medium is harvested from each well and 50 μl aliquots are counted. The cells are then lysed by adding 500 μl of HEPES/Triton lysis buffer to each well. The lysis is facilitated by freezing and thawing once. After thawing, the lysates are mixed well and 50 μl aliquots are counted.
The percent efflux of each peptide in each medium condition (±cAMP) is calculated by dividing the total counts in the medium by the sum of the total counts in the medium and lysate. The percent efflux seen with plain medium is subtracted from the percent efflux seen with the cAMP-stimulated efflux to yield the reported ABCA1-stimulated values. EC50 values are determined using PRISM software (Table 2).

Setting [1] is: read-out: EC50 in the cholesterol efflux assay (RCT in vitro assay).
[2] abbreviates: read-out: ABCA1-DEPENDENT CHOLESTEROL EFFLUX EC50.

T1 sequence (P41233 whole entry): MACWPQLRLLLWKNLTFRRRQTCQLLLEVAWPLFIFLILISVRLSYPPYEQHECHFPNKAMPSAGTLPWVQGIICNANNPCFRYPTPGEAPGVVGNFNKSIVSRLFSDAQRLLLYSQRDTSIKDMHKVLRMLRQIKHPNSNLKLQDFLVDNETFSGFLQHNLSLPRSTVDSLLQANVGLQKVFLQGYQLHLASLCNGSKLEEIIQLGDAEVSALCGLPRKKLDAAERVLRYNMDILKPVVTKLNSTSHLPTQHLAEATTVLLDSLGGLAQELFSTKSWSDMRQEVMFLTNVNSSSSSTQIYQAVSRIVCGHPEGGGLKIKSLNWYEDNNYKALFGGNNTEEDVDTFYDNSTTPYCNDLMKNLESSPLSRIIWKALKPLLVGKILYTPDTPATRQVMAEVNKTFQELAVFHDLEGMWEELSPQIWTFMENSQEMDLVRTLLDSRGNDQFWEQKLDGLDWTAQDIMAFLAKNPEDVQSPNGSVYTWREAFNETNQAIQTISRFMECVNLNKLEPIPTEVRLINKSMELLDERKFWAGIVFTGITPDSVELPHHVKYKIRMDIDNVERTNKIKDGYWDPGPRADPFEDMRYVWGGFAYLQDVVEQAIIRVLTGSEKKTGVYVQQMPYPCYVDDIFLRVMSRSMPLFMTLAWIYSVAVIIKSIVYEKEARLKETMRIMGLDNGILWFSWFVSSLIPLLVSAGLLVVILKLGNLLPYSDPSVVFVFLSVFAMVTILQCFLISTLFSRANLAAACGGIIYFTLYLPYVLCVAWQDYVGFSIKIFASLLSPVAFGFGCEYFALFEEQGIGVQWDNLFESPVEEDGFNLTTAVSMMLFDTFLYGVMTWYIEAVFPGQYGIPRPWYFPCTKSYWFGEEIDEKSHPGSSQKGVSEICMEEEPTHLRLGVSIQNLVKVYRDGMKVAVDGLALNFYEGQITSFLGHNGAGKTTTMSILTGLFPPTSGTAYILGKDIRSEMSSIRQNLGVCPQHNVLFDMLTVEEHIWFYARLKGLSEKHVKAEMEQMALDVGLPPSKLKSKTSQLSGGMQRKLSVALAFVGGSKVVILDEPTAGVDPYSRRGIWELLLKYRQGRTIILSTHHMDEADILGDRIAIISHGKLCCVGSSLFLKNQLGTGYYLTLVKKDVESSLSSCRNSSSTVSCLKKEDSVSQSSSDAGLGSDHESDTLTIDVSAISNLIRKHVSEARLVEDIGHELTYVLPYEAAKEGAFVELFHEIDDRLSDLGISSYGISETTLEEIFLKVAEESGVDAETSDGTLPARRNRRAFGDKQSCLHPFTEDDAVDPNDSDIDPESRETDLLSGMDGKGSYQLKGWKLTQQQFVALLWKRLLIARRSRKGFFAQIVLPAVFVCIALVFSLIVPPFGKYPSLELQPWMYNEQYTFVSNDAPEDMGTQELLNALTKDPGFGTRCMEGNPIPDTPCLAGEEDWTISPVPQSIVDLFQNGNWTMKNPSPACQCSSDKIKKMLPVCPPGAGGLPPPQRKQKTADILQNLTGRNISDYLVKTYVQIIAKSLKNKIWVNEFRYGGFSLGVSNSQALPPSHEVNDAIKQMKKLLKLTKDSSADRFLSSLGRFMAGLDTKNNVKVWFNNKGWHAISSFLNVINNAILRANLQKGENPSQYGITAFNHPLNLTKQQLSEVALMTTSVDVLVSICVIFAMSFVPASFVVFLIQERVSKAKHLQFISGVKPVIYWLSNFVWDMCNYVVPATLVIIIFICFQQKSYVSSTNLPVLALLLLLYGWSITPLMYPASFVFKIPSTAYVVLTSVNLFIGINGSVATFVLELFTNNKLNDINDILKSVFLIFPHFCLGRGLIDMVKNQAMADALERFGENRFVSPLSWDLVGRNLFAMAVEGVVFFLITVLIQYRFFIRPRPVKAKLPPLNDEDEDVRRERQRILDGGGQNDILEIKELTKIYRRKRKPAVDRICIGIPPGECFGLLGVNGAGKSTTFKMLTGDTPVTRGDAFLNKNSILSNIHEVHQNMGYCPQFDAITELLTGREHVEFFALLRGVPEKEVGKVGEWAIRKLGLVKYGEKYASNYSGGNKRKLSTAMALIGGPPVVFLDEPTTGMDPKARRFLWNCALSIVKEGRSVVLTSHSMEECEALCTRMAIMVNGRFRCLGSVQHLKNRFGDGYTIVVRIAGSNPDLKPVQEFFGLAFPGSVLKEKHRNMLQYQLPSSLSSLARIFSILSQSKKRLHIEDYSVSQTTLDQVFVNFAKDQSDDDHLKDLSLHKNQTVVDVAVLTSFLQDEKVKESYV

For the compound `CCCCCCC[C@H](NC(=O)[C@H](CCC(=O)O)NC(=O)[C@H](CC(N)=O)NC(=O)[C@H](CC(C)C)NC(=O)[C@H](CCCCN)NC(=O)[C@H](CCC(=O)O)NC(=O)[C@H](CCCN=C(N)N)NC(=O)[C@H](Cc1ccccc1)NC(=O)[C@H](CCC(=O)O)NC(=O)[C@H](CC(=O)O)NC(=O)[C@H](CC(C)C)NC(=O)[C@@H](NC(=O)[C@@H]1CCCN1C(C)=O)C(C)C)C(=O)N[C@@H](CC(C)C)C(=O)N[C@@H](CCC(=O)O)C(=O)N[C@@H](C)C(=O)N[C@@H](CC(C)C)C(=O)N[C@@H](CCCCN)C(=O)N[C@@H](CCC(N)=O)C(=O)N[C@@H](CCCCN)C(=O)N[C@@H](CC(C)C)C(=O)N[C@@H](CCCCN)C(N)=O` [SEQ ID NO 34, PVLDEFREKLNES7H3LEALKQKLK] (Ac-PVLDEFREKLNE[X6]LEALKQKLK-NH2), the EC50 – broadly, the concentration that produces a half-maximal response – under setting [1] was found to be 0.6 µM.
On to `CCCCCCCC[C@H](NC(=O)[C@H](CCC(=O)O)NC(=O)[C@H](CC(N)=O)NC(=O)[C@H](CC(C)C)NC(=O)[C@H](CCCCN)NC(=O)[C@H](CCC(=O)O)NC(=O)[C@H](CCCN=C(N)N)NC(=O)[C@H](Cc1ccccc1)NC(=O)[C@H](CCC(=O)O)NC(=O)[C@H](CC(=O)O)NC(=O)[C@H](CC(C)C)NC(=O)[C@@H](NC(=O)[C@@H]1CCCN1C(C)=O)C(C)C)C(=O)N[C@@H](CC(C)C)C(=O)N[C@@H](CCC(=O)O)C(=O)N[C@@H](C)C(=O)N[C@@H](CC(C)C)C(=O)N[C@@H](CCCCN)C(=O)N[C@@H](CCC(N)=O)C(=O)N[C@@H](CCCCN)C(=O)N[C@@H](CC(C)C)C(=O)N[C@@H](CCCCN)C(N)=O` [SEQ ID NO 35, PVLDEFREKLNES8H3LEALKQKLK] (Ac-PVLDEFREKLNE[Gly(octyl)]LEALKQKLK-NH2), for which the EC50 under setting [1] turned out to be 0.3 µM.
As to `CC(=O)N1CCC[C@H]1C(=O)N[C@H](C(=O)N[C@@H](CC(C)C)C(=O)N[C@@H](CC(=O)O)C(=O)N[C@@H](CCC(=O)O)C(=O)N[C@@H](Cc1ccccc1)C(=O)N[C@@H](CCCNC(=N)N)C(=O)N[C@@H](CCC(=O)O)C(=O)N[C@@H](CCCCN)C(=O)N[C@@H](CC(C)C)C(=O)N[C@@H](CC(N)=O)C(=O)N[C@@H](CCC(=O)O)C(=O)N[C@@H](CC(C(F)(F)F)C(F)(F)F)C(=O)N[C@@H](CC(C)C)C(=O)N[C@@H](CCC(=O)O)C(=O)N[C@@H](C)C(=O)N[C@@H](CC(C)C)C(=O)N[C@@H](CCCCN)C(=O)N[C@@H](CCC(N)=O)C(=O)N[C@@H](CCCCN)C(=O)N[C@@H](CC(C)C)C(=O)N[C@@H](CCCCN)C(N)=O)C(C)C` [SEQ ID NO 41, PVLDEFREKLNE-HFLEU-LEALKQKLK] (Ac-PVLDEFREKLNE[Leu(5,5,5,5',5',5'-F6)]LEALKQKLK-NH2; C-terminus assumed), under setting [1], the EC50 stood at 1.1 µM.
Still for that read-out and setting: with `C=CCCCCC[C@H](NC(=O)[C@H](CCC(=O)O)NC(=O)[C@H](CC(N)=O)NC(=O)[C@H](CC(C)C)NC(=O)[C@H](CCCCN)NC(=O)[C@H](CCC(=O)O)NC(=O)[C@H](CCCN=C(N)N)NC(=O)[C@H](Cc1ccccc1)NC(=O)[C@H](CCC(=O)O)NC(=O)[C@H](CC(=O)O)NC(=O)[C@H](CC(C)C)NC(=O)[C@H](CCCCCC=C)NC(=O)[C@@H]1CCCN1C(C)=O)C(=O)N[C@@H](CC(C)C)C(=O)N[C@@H](CCC(=O)O)C(=O)N[C@@H](C)C(=O)N[C@@H](CC(C)C)C(=O)N[C@@H](CCCCN)C(=O)N[C@@H](CCC(N)=O)C(=O)N[C@@H](CCCCN)C(=O)N[C@@H](CC(C)C)C(=O)N[C@@H](CCCCN)C(N)=O` [SEQ ID NO 42, PS7HLDEFREKLNES7HLEALKQKLK] (Ac-P[Ala(5-hexenyl)]LDEFREKLNE[Ala(5-hexenyl)]LEALKQKLK-NH2) the figure was 0.3 µM.
Still for that read-out and setting: under `C=CCCCCC[C@H](NC(=O)[C@H](CCC(N)=O)NC(=O)[C@H](CCCCN)NC(=O)[C@H](CC(C)C)NC(=O)[C@H](C)NC(=O)[C@H](CCC(=O)O)NC(=O)[C@H](CC(C)C)NC(=O)[C@H](CCCCCC=C)NC(=O)[C@H](CCC(=O)O)NC(=O)[C@H](CC(N)=O)NC(=O)[C@H](CC(C)C)NC(=O)[C@H](CCCCN)NC(=O)[C@H](CCC(=O)O)NC(=O)[C@H](CCCN=C(N)N)NC(=O)[C@H](Cc1ccccc1)NC(=O)[C@H](CCC(=O)O)NC(=O)[C@H](CC(=O)O)NC(=O)[C@H](CC(C)C)NC(=O)[C@@H](NC(=O)[C@@H]1CCCN1C(C)=O)C(C)C)C(=O)N[C@@H](CC(C)C)C(=O)N[C@@H](CCCCN)C(N)=O` [SEQ ID NO 44, PVLDEFREKLNES7HLEALKQS7HLK] (Ac-PVLDEFREKLNE[Ala(5-hexenyl)]LEALKQ[Ala(5-hexenyl)]LK-NH2) stands 0.6 µM.
The same measure, in the same setting: under `C=CCCCCC[C@H](NC(=O)[C@H](CCC(=O)O)NC(=O)[C@H](CC(N)=O)NC(=O)[C@H](CC(C)C)NC(=O)[C@H](CCCCN)NC(=O)[C@H](CCC(=O)O)NC(=O)[C@H](CCCNC(=N)N)NC(=O)[C@H](Cc1ccccc1)NC(=O)[C@H](CCC(=O)O)NC(=O)[C@H](CC(=O)O)NC(=O)[C@H](CC(C)C)NC(=O)[C@@H](NC(=O)[C@@H]1CCCN1C(C)=O)C(C)C)C(=O)N[C@@H](CC(C)C)C(=O)N[C@@H](CC(C(=O)O)C(=O)O)C(=O)N[C@@H](C)C(=O)N[C@@H](CC(C)C)C(=O)N[C@@H](CCCCN)C(=O)N[C@@H](CCC(N)=O)C(=O)N[C@@H](CCCCN)C(=O)N[C@@H](CC(C)C)C(=O)N[C@@H](CCCCN)C(N)=O` [SEQ ID NO 47, PVLDEFREKLNES7HL-GLA-ALKQKLK] (Ac-PVLDEFREKLNE[Ala(5-hexenyl)]L[Gla]ALKQKLK-NH2; C-terminus assumed) stands 0.7 µM; under `CCCCCCC[C@H](NC(=O)[C@H](CCC(=O)O)NC(=O)[C@H](CC(N)=O)NC(=O)[C@H](CC(C)C)NC(=O)[C@H](CCCCN)NC(=O)[C@H](CCC(=O)O)NC(=O)[C@H](CCCNC(=N)N)NC(=O)[C@H](CCCCCCC)NC(=O)[C@H](CCC(=O)O)NC(=O)[C@H](CC(=O)O)NC(=O)[C@H](CC(C)C)NC(=O)[C@@H](NC(=O)[C@@H]1CCCN1C(C)=O)C(C)C)C(=O)N[C@@H](CC(C)C)C(=O)N[C@@H](CCC(=O)O)C(=O)N[C@@H](C)C(=O)N[C@@H](CC(C)C)C(=O)N[C@@H](CCCCN)C(=O)N[C@@H](CCC(N)=O)C(=O)N[C@@H](CCCCN)C(=O)N[C@@H](CC(C)C)C(=O)N[C@@H](CCCCN)C(N)=O` [SEQ ID NO 50, PVLDES7H3REKLNES7H3LEALKQKLK] (Ac-PVLDE[X6]REKLNE[X6]LEALKQKLK-NH2; C-terminus assumed), 0.3 µM.
For the compound `C=CCCC[C@@H](NC(=O)[C@H](CCC(=O)O)NC(=O)[C@H](CC(N)=O)NC(=O)[C@H](CC(C)C)NC(=O)[C@@H](CCCC=C)NC(=O)[C@H](CCC(=O)O)NC(=O)[C@H](CCCNC(=N)N)NC(=O)[C@H](Cc1ccccc1)NC(=O)[C@H](CCC(=O)O)NC(=O)[C@H](CC(=O)O)NC(=O)[C@H](CC(C)C)NC(=O)[C@@H](NC(=O)[C@@H]1CCCN1C(C)=O)C(C)C)C(=O)N[C@@H](CC(C)C)C(=O)N[C@@H](CCC(=O)O)C(=O)N[C@@H](C)C(=O)N[C@@H](CC(C)C)C(=O)N[C@@H](CCCCN)C(=O)N[C@@H](CCC(N)=O)C(=O)N[C@@H](CCCCN)C(=O)N[C@@H](CC(C)C)C(=O)N[C@@H](CCCCN)C(N)=O` [compound 9] (Ac-PVLDEFRE[dNle(6-ylidene)]LNE[dNle(6-ylidene)]LEALKQKLK-NH2; C-terminus assumed), the EC50 under setting [2] turned out to be 46 µM.
The same measure, in the same setting: under `C=CCCCCC[C@H](NC(=O)[C@H](CCC(=O)O)NC(=O)[C@H](CC(=O)O)NC(=O)[C@H](CC(C)C)NC(=O)[C@@H](NC(=O)[C@@H]1CCCN1C(C)=O)C(C)C)C(=O)N[C@@H](CCCNC(=N)N)C(=O)N[C@@H](CCC(=O)O)C(=O)N[C@@H](CCCCN)C(=O)N[C@@H](CC(C)C)C(=O)N[C@@H](CC(N)=O)C(=O)N[C@@H](CCC(=O)O)C(=O)N[C@H](CCCCC=C)C(=O)N[C@@H](CC(C)C)C(=O)N[C@@H](CCC(=O)O)C(=O)N[C@@H](C)C(=O)N[C@@H](CC(C)C)C(=O)N[C@@H](CCCCN)C(=O)N[C@@H](CCC(N)=O)C(=O)N[C@@H](CCCCN)C(=O)N[C@@H](CC(C)C)C(=O)N[C@@H](CCCCN)C(N)=O` [compound 10] (Ac-PVLDE[Ala(5-hexenyl)]REKLNE[dNle(6-vinyl)]LEALKQKLK-NH2; C-terminus assumed) stands 1.3 µM.
Still for that read-out and setting: under `CC(=O)N1CCC[C@H]1C(=O)N[C@H](C(=O)N[C@@H](CC(C)C)C(=O)N[C@@H](CC(=O)O)C(=O)N[C@@H](CCC(=O)O)C(=O)N[C@@H](Cc1ccccc1)C(=O)N[C@@H](CCCNC(=N)N)C(=O)N[C@@H](CCC(=O)O)C(=O)N[C@@H]1CCCC=CCCC[C@H](C(=O)N[C@@H](CC(C)C)C(=O)N[C@@H](CCC(=O)O)C(=O)N[C@@H](C)C(=O)N[C@@H](CC(C)C)C(=O)N[C@@H](CCCCN)C(=O)N[C@@H](CCC(N)=O)C(=O)N[C@@H](CCCCN)C(=O)N[C@@H](CC(C)C)C(=O)N[C@@H](CCCCN)C(N)=O)NC(=O)[C@H](CCC(=O)O)NC(=O)[C@H](CC(N)=O)NC(=O)[C@H](CC(C)C)NC1=O)C(C)C` [compound 12] (Ac-PVLDEFRE[dNle(6-ylidene)]LNE[dNle(6-ylidene)]LEALKQKLK-NH2; staple 9-13; C-terminus assumed) stands 10 µM.
“Ac-PVLDEFREKLNE[Ala(5-hexenyl)]LEALKQKLKPVLDEFREKLNE[Ala(5-hexenyl)]LEALKQKLK-NH2 (C-terminus assumed) [SEQ ID NO 63]”: the EC50 under setting [1] amounted to 41 µM.
